{"source": "ChEMBL document CHEMBL1201862", "about": "“PubChem BioAssay data set” (2004)", "key": {"Albumin": {"target": "Albumin (Bos taurus, UniProt P02769)", "sequence (P02769 whole entry)": "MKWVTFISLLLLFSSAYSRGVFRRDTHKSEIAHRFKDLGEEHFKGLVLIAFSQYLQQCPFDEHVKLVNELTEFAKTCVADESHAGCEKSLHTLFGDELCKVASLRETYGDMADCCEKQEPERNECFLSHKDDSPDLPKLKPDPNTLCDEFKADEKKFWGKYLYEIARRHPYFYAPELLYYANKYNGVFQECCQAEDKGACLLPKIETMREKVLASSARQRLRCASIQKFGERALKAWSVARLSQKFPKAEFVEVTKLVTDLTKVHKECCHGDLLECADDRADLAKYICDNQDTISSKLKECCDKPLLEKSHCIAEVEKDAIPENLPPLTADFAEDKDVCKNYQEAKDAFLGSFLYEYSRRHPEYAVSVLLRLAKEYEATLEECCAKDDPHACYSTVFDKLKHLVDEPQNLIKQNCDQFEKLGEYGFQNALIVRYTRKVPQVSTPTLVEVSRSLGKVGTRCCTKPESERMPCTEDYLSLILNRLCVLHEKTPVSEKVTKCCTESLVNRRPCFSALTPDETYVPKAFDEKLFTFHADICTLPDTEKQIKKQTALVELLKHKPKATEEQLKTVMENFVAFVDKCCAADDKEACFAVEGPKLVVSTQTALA", "assay": "Counterscreen for inhibitors of T-cell receptor (TCR)-CD3 interaction: Fluorescence-based biochemical high throughput dose response assay to identify inhibitors of T-cell receptor (TCR)-CD3 interaction using a TAMRA-labeled BSA probe.", "format": "functional"}, "[1]": {"target": "Heat shock protein HSP 90-alpha (Homo sapiens, UniProt P07900)", "format": "functional, organism-based"}, "[2]": {"target": "T1, Carboxy-terminal domain RNA polymerase II polypeptide A small phosphatase 1 (Homo sapiens, UniProt Q9GZU7)", "T1 sequence (Q9GZU7 whole entry)": "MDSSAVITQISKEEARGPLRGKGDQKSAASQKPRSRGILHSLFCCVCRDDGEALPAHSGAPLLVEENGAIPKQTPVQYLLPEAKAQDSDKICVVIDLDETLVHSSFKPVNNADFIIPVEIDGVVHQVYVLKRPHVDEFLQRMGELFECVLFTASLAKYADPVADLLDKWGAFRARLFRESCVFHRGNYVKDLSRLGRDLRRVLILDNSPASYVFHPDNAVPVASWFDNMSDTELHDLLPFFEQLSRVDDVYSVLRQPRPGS", "assay": "inhibitors of CTDSP1, concentration-response testing, biochemical assay, absorbance-based, actives from ultra-high-throughput screening (AID 540297)", "format": "functional"}, "Caspase-6": {"target": "T2, Caspase-6 (Homo sapiens, UniProt P55212)", "T2 sequence (P55212 whole entry)": "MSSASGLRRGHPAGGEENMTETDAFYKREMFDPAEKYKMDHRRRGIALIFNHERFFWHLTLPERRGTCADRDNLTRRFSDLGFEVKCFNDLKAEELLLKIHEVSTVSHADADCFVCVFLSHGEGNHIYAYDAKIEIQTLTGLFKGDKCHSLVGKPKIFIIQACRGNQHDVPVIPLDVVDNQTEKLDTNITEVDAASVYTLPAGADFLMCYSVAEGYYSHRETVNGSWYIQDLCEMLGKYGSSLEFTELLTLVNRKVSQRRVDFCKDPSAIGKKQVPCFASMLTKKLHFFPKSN", "assay": "human caspase-6 inhibitors, dose response, biochemical, VEID-R110 fluorescence, cherry-pick (AID 720632)"}, "HEK293": {"test_system": "HEK293", "assay": "cells", "format": "functional, cell-based", "settings": "Homo sapiens"}, "[3]": {"target": "T3, Nuclear receptor subfamily 0 group B member 1 (Homo sapiens, UniProt P51843)", "T3 sequence (P51843 whole entry)": "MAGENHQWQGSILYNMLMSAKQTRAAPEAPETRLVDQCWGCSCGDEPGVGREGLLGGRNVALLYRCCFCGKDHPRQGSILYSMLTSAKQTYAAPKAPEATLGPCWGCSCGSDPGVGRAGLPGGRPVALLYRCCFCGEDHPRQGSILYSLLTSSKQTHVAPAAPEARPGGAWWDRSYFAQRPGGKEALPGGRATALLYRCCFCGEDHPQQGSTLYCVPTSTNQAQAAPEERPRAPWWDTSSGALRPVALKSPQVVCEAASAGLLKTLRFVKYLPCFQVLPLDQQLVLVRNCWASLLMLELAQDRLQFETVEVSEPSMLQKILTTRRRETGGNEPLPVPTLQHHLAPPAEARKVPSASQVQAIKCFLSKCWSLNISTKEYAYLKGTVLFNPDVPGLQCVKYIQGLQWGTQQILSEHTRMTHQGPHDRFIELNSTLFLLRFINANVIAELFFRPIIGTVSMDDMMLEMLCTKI", "assay": "Luminescence-based cell-based high throughput dose response assay for inhibitors of the orphan nuclear receptor subfamily 0, group B, member 1 (DAX1; NR0B1). [Related pubchem assays (depositor defined):AID504766, AID504790]", "format": "functional"}, "[4]": {"target": "T4, DNA repair and recombination protein RAD54-like (Homo sapiens, UniProt Q92698)", "T4 sequence (Q92698 whole entry)": "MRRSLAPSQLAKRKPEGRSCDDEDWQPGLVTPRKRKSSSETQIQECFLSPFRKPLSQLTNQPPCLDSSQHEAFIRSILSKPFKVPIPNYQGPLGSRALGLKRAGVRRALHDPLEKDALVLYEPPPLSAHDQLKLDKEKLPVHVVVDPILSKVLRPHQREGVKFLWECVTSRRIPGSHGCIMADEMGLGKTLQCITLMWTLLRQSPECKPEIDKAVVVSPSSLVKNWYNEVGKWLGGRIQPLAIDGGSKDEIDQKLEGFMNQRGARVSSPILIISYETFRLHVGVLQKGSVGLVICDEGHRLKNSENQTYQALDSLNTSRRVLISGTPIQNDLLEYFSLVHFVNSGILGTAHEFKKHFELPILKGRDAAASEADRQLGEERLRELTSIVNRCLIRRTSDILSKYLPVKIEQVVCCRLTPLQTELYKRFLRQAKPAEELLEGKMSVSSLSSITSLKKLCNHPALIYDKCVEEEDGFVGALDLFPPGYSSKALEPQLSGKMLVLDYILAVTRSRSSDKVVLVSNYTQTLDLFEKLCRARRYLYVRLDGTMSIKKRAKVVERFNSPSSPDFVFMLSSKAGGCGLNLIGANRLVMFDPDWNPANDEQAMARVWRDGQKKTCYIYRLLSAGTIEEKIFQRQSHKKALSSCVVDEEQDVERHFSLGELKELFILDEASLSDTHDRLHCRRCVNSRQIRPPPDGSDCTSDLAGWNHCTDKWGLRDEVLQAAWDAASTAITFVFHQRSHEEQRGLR", "assay": "inhibitors of human RAD54 branch migration, confirmation, biochemical, fluorescence, cherry-picked samples, dose series (AID 651657)", "format": "functional"}, "[5]": {"target": "T5, Small ubiquitin-related modifier 1 (Homo sapiens, UniProt P63165)", "T5 sequence (P63165 whole entry)": "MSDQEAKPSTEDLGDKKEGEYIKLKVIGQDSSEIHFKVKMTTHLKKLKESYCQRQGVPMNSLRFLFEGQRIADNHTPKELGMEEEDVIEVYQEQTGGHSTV", "assay": "inhibitors of SUMO1 partner interactions, dose response, biochemical, FRET (AID 624383)", "format": "functional", "settings": "read-out: IC50_Mean"}, "[6]": {"target": "T5, Small ubiquitin-related modifier 1", "assay": "inhibitors of SUMO1 peptide binding, dose response, biochemical, fluorescence polarization, uHTS hits (AID 624382)", "format": "functional", "settings": "read-out: IC50_Mean"}, "[7]": {"target": "T6, DNA repair protein RAD52 homolog (Homo sapiens, UniProt P43351)", "T6 sequence (P43351 whole entry)": "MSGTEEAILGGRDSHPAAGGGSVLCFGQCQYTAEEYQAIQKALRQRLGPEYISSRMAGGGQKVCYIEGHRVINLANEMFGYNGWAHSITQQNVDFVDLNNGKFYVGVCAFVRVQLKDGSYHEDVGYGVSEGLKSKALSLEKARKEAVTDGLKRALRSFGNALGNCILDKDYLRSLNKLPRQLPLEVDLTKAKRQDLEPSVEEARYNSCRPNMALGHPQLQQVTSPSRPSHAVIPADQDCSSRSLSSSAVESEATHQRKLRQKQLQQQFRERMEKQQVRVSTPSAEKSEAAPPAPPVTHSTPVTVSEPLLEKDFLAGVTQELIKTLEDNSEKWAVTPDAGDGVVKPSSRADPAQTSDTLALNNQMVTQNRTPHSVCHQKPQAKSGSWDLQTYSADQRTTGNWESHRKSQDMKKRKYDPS", "format": "functional, biochemical"}, "[8]": {"assay": "P. falciparum Dd2 growth inhibitors, dose response, SYBR Green, dry powder samples, set 9 (AID 1159568)", "format": "functional, cell-based"}}, "note": "Activity calls are given as the source filed them.", "data": [{"compound": "CCn1c(C)nc2cc(C(=O)NNC(=S)NC(=O)c3ccccc3)ccc21", "values": [{"measurement": "IC50", "setting": "Albumin", "result": "> 94.1 µM (inactive)"}]}, {"compound": "N=C(Cc1ccc(Cl)cc1Cl)NOC(=O)c1cccs1", "values": [{"measurement": "AC50", "setting": "[1]", "result": "3.59 µM (active)"}]}, {"compound": "O=C(O)c1cnc2c([N+](=O)[O-])cccc2c1O", "values": [{"measurement": "IC50", "setting": "[2]", "result": "5.65 µM (active)"}, {"measurement": "AC50", "setting": "Caspase-6", "result": "5.77 µM (active)"}, {"measurement": "IC50", "setting": "Albumin", "result": "> 94 µM (inactive)"}]}, {"compound": "Cc1ccc(OCC(=O)NC(=S)Nc2cccc(C)n2)cc1", "values": [{"measurement": "IC50", "setting": "HEK293", "result": "> 67.5 µM (inactive)"}, {"measurement": "IC50", "setting": "[3]", "result": "> 67.5 µM (inactive)"}]}, {"compound": "Cc1cc(-c2cc(NC=O)c3ncc(-c4cccc(C(=O)NCCN(C)C)c4)n3c2)cc(C)c1O", "values": [{"measurement": "AC50", "setting": "[4]", "result": "8.33 µM (active)"}, {"measurement": "IC50", "setting": "[5]", "result": "20.2 µM (inactive)"}, {"measurement": "IC50", "setting": "[6]", "result": "> 66.6 µM (inactive)"}, {"measurement": "AC50", "setting": "[7]", "result": "1.54 µM (active)"}]}, {"compound": "O=C(Nc1cc(F)ccc1F)N1CCCCN2[C@H](CO)[C@H](c3ccc(C4=CCCCC4)cc3)[C@@H]2C1", "values": [{"measurement": "AC50", "setting": "[8]", "result": "12.2 µM (active)"}]}, {"compound": "COc1cccc(S(=O)(=O)N2CCCCN3[C@H](CO)[C@H](c4ccc(C#CCC(C)C)cc4)[C@H]3C2)c1", "values": [{"measurement": "AC50", "setting": "[8]", "result": "2.41 µM (active)"}]}]}
